We go through 35 compounds from patent US20220227765A1, “PYRIDO-INDOLE ANALOGUES AS GPX4 INHIBITORS” (Ferro Therapeutics, Inc., priority 2019, published 2022).

Common to all, as to type: cell-based, human
The test system of assay [1] is 786-O. Put plainly: Cell proliferation (Alamar Blue) assay, 786-O. The following applies: Homo sapiens, 786-0, 24 h, Table B-3, 786-O cells. The method, then:
(§1) Cell viability assay was performed to assess the potency of the compounds in human cancer cell lines 786-0 (renal cell carcinoma) and SJSA-1 (osteosarcoma). Additional cell lines, such as pancreatic cancer cell lines (Panc 02.13, BxPC-3, Panc 12, Panc 02.03, Panc 6.03, PSN-1, HPAC, and Capan-1), prostate cancer cell lines (PC-3, DU145, 22Rv1, NCI-H660, BPH1, LNCaP, BM-1604, and MDA PCa 2b), etc., can be tested in a similar method.
(§2) Cells (SJSA-1, 786-0 and A431) were seeded (5000 cells/100 μL/well) in 96-well tissue culture plate and incubated at 37° C./5% CO2 for 16-24 hours. The cells were then treated with compounds (25 μL of 5×). The compound concentrations were 10-0.0005 μM prepared in 3-fold serial dilutions with final DMSO concentration of 1%. The plates were then incubated for 24 h at 37° C./5% CO2 in a moist environment. Then Alamar Blue™ reagent (final concentration 1×-12.5 μL) was added to each well and incubated for 1.5 hours at 37° C./5% CO2. The plates were read on fluorescence reader at 540 nm excitation and 590 nm emission wavelengths. The IC50 values were subsequently determined using a sigmoidal dose-response curve (variable slope) in GraphPad Prism® 5 software. Table A-3, Table B-3 and Table C-3 show cell proliferation data for certain compounds as described herein.
Background: The colour change of resazurin is a common sign of viable cells or microbes.

For assay [2], the system named is SJSA-1. Kind of assay: Cell proliferation (Alamar Blue) assay, SJSA-1. To be noted: Homo sapiens, SJSA-1, 24 h, Table B-3, head prints SJSB-1, 24 h, read-out: IC50 (μM) SJSB-1. The method, then: as §1, §2
Assay [3] has as its system A431. Put plainly: Cell proliferation (Alamar Blue) assay, A431. To be noted: Table B-3, A431 cells. The method, then:
as §1, §2

As to `C#CC(=O)N1[C@@H](CCCC)Cc2c([nH]c3ccccc23)[C@@H]1c1ccc(NC23CC4CC(CC(C4)C2)C3)cc1` [Compound B-18], the IC50 (as a rule, the midpoint of a concentration-inhibition curve) in assay [1] amounted to 0.005 µM; in assay [2], 0.006 µM; in assay [3] (24 h), 7.8 µM.
With `C#CC(=O)N1[C@@H](CCCC)Cc2c([nH]c3ccccc23)[C@@H]1c1ccc(C(=O)NCCn2ccnc2)cc1` [Compound B-19], the IC50 in assay [1] was 0.367 µM; in assay [2], 0.294 µM; in assay [3] (Homo sapiens, A-431, 24 h), over 10 µM.
In the same order, the values of `C#CC(=O)N1[C@@H](CCCC)Cc2c([nH]c3c(F)cc(F)cc23)[C@@H]1c1nccn1C` [Compound B-24] are 0.123 µM, 0.167 µM and over 10 µM.
For `C#CC(=O)N1C(CCCC)Cc2c([nH]c3ccccc23)[C@@H]1c1ccc(CNCC23CC4CC(CC(C4)C2)C3)cc1` (stereo partly drawn) [Compound B-45A] the same measures were 0.0002 µM, 0.001 µM and 3.8 µM.
For the compound `C#CC(=O)N1C(CCCC)Cc2c([nH]c3ccccc23)[C@H]1c1ccc(CNCC23CC4CC(CC(C4)C2)C3)cc1` (stereo partly drawn) [Compound B-45B], the IC50 is 0.005 µM in assay [1]; 0.011 µM in assay [2]; 1.7 µM in assay [3] (Homo sapiens, A-431, 24 h).
In the same order, the values of `C#CC(=O)N1[C@@H](CCCC)Cc2c([nH]c3c(F)cc(F)cc23)[C@@H]1c1ccc(N2CCN(C)CC2)cc1` [Compound B-57] are 0.059 µM, 0.063 µM and over 10 µM.
In the same order, the values of `C#CC(=O)N1[C@@H](CCCC)Cc2c([nH]c3c(F)cc(F)cc23)[C@@H]1c1ccc(N2CCN(C)CC2)c(C#N)c1` [Compound B-58] are 0.135 µM, 0.15 µM and over 10 µM.
`C#CC(=O)N1[C@@H](CCCC)Cc2c([nH]c3c(F)cc(F)cc23)[C@@H]1c1ccc(N2CCC2)cc1` [Compound B-59]: the IC50 is 0.011 µM in assay [1]; 0.016 µM in assay [2]; over 10 µM in assay [3] (Homo sapiens, A-431, 24 h).
In the same order, the values of `C#CC(=O)N1[C@@H](CCCC)Cc2c([nH]c3c(F)cc(F)cc23)[C@@H]1c1ccc(N2CCC2)c(C#N)c1` [Compound B-60] are 0.31 µM, 0.706 µM and over 10 µM.
For `C#CC(=O)N1[C@@H](CC)Cc2c([nH]c3c(F)cc(F)cc23)[C@@H]1c1ccc(F)cc1` [Compound B-61] the same measures were 0.062 µM, 0.068 µM and over 10 µM.
`C#CC(=O)N1C(c2ccn(-c3ccc(F)cc3)n2)c2[nH]c3ccccc3c2C[C@@H]1CCCC` (stereo partly drawn) [Compound B-62]: the IC50 turned out to be 0.029 µM in assay [1]; 0.021 µM in assay [2]; 6.4 µM in assay [3] (Homo sapiens, A-431, 24 h).
Regarding `C#CC(=O)N1C(c2ccn(C34CC5CC(CC(C5)C3)C4)n2)c2[nH]c3ccccc3c2C[C@@H]1CCCC` (stereo partly drawn) [Compound B-63], the IC50 in assay [1] came to 0.061 µM; in assay [2], 0.059 µM; in assay [3] (Homo sapiens, A-431, 24 h) it was 5.8 µM.
For `C#CC(=O)N1[C@@H](CCCC)Cc2c([nH]c3ccc(F)cc23)[C@@H]1c1ccc(NC23CC4CC(CC(C4)C2)C3)cc1` [Compound B-64] the same measures were 0.008 µM, 0.012 µM and 4.45 µM.
In the same order, the values of `C#CC(=O)N1[C@@H](CCCC)Cc2c([nH]c3c(F)cc(F)cc23)[C@@H]1c1ccc(NC23CC4CC(CC(C4)C2)C3)cc1` [Compound B-65] are 0.015 µM, 0.016 µM and 3.53 µM.
For `C#CC(=O)N1[C@@H](CCC)Cc2c([nH]c3ccccc23)[C@@H]1c1ccc(NC23CC4CC5CC(C2)C54C3)cc1` (stereo partly drawn) [Compound B-67] the same measures were 0.006 µM, 0.0025 µM and 2 µM.
In the case of `C#CC(=O)N1[C@@H](CCCC)Cc2c([nH]c3ccccc23)[C@@H]1c1ccc(NC2CCCC2)cc1` [Compound B-68], the IC50 in assay [1] was 0.045 µM; in assay [2], 0.0715 µM; in assay [3] (Homo sapiens, A-431, 24 h), over 10 µM.
In the same order, the values of `C#CC(=O)N1[C@@H](CCCC)Cc2c([nH]c3ccccc23)[C@@H]1c1ccc(N2CCC3(COC3)C2)cc1` [Compound B-69, 1-((1S,3S)-1-(4-(2-oxa-6-azaspiro[3.4]octan-6-yl)phenyl)-3-butyl-1,3,4,9-tetrahydro-2H-pyrido[3,4-b]indol-2-yl)prop-2-yn-1-one] are 0.047 µM, 0.036 µM and over 1 µM.
For `C#CC(=O)N1[C@@H](CCCC)Cc2c(n(C)c3ccccc23)[C@@H]1c1ccc(NC23CC4CC(CC(C4)C2)C3)cc1` [Compound B-70, 1-((1S,3S)-1-(4-(((1R,3R,5S)-adamantan-1-yl)amino)phenyl)-3-butyl-9-methyl-1,3,4,9-tetrahydro-2H-pyrido[3,4-b]indol-2-yl)prop-2-yn-1-one] the same measures were 0.0165 µM, 0.066 µM and 4.76 µM.
In the same order, the values of `C#CC(=O)N1[C@@H](CCCC)Cc2c([nH]c3ccccc23)[C@@H]1c1ccc(NC2CCCCC2)cc1` [Compound B-71] are 0.042 µM, 0.056 µM and over 10 µM.
Consider `C#CC(=O)N1[C@@H](CCCC)Cc2c([nH]c3c(F)cc(F)cc23)[C@@H]1C(C)C` [Compound B-72], for which the IC50 in assay [1] was 0.222 µM; in assay [2], 0.223 µM; in assay [3] (Homo sapiens, A-431, 24 h), over 10 µM.
For `C#CC(=O)N1[C@@H](CCCC)Cc2c([nH]c3c(F)cc(F)cc23)[C@@H]1CCC` [Compound B-73] the same measures were 0.14 µM, 0.22 µM and over 10 µM.
For `C#CC(=O)N1[C@@H](CCCC)Cc2c([nH]c3c(F)cc(F)cc23)[C@@H]1CCCC` [Compound B-74] the same measures were 0.05 µM, 0.04 µM and 4.4 µM.
In the same order, the values of `C#CC(=O)N1[C@@H](CCCC)Cc2c([nH]c3c(F)cc(F)cc23)[C@@H]1C1CCC(=O)CC1` [Compound B-76] are 0.168 µM, 0.247 µM and over 10 µM.
With `C#CC(=O)N1[C@@H](CCCC)Cc2c([nH]c3c(F)cc(F)cc23)[C@@H]1C1CCC(O)CC1` (stereo partly drawn) [Compound B-77], the IC50 is 0.166 µM in assay [1]; 0.16 µM in assay [2]; 6.57 µM in assay [3] (Homo sapiens, A-431, 24 h).
For `C#CC(=O)N1[C@@H](CCCC)Cc2c([nH]c3c(F)cc(F)cc23)[C@@H]1CCCCCCCC` [Compound B-79] the same measures were 0.07 µM, 0.08 µM and 9.4 µM.
In the same order, the values of `C#CC(=O)N1[C@@H](CCCC)Cc2c([nH]c3c(F)cc(F)cc23)[C@@H]1COCCOC` [Compound B-80] are 0.043 µM, 0.093 µM and 6.8 µM.
For `C#CC(=O)N1[C@@H](CCCC)Cc2c([nH]c3c(F)cc(F)cc23)[C@@H]1CC(C)C` [Compound B-82] the same measures were 0.2 µM, 0.16 µM and over 10 µM.
For `CCCC[C@H]1Cc2c([nH]c3c(F)cc(F)cc23)[C@H](C23CC(N)(C2)C3)N1C(=O)CCl` [Compound B-83], the IC50 in assay [1] is 0.12 µM; in assay [2] it was 0.12 µM; in assay [3] (Homo sapiens, A-431, 24 h), over 10 µM.
Turning to `CCCC[C@H]1Cc2c([nH]c3c(F)cc(F)cc23)[C@H](c2ccc(N)cc2)N1C(=O)CCl` [Compound B-85], the IC50 in assay [1] was 0.012 µM; in assay [2], 0.024 µM; in assay [3] (Homo sapiens, A-431, 24 h), over 10 µM.
Regarding `C#CC(=O)N1[C@@H](CCCC)Cc2c([nH]c3c(F)cc(F)cc23)[C@@H]1c1ccc(NC(=O)OCCCC(=O)O)cc1` [Compound B-86], the IC50 was 0.227 µM in assay [1]; 0.239 µM in assay [2]; over 10 µM in assay [3] (Homo sapiens, A-431, 24 h).
In the same order, the values of `C#CC(=O)N1[C@@H](CCCC)Cc2c([nH]c3c(F)cc(F)cc23)[C@@H]1c1ccc(NC(=O)CCCCC(=O)O)cc1` [Compound B-87] are over 10 µM, over 10 µM and over 10 µM.
In the same order, the values of `CCCCCOC(=O)Nc1ccc([C@H]2c3[nH]c4c(F)cc(F)cc4c3C[C@H](CCCC)N2C(=O)CCl)cc1` [Compound B-89] are 0.008 µM, 0.002 µM and over 10 µM.
For `CCCCCOC(=O)NC12CC([C@H]3c4[nH]c5c(F)cc(F)cc5c4C[C@H](CCCC)N3C(=O)CCl)(C1)C2` [Compound B-90] the same measures were 0.013 µM, 0.03 µM and over 10 µM.
Turning to `C#CC(=O)N1[C@@H](CCCC)Cc2c([nH]c3ccccc23)[C@@H]1CCCCC` [Compound B-92], the IC50 was 0.137 µM in assay [1]; 0.17 µM in assay [2]; over 10 µM in assay [3] (Homo sapiens, A-431, 24 h).
For `C#CC(=O)N1[C@@H](CCCC)Cc2c([nH]c3ccccc23)[C@@H]1CCCCCC` [Compound B-93] the same measures were 0.091 µM, 0.077 µM and over 10 µM.
